Results published in PubChem BioAssay AID1963826 (Molecular Pharmacology Branch, DTP, NCI, 2024).

Test system: 926638-142-R-J1-PDC complex spheroid viability
Assay: Anticancer human tumor 926638-142-R-J1-PDC patient-derived endometrial carcinoma cell line growth inhibition [POLQ]
Conditions: for IC50: curve of first compound; for viability, T/C: stronger effect = lower value
Summary of the method: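 Complex spheroid viability model combining PDC tumour cells with endothelial (HUVEC) and MSC stromal cells. Novobiocin, ART-558 or RP6685 were tested singly and in combination with standard and investigational anticancer drugs. Each was titrated in half-log steps from near clinical Cmax, or from 10 microM where Cmax was unknown.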

[1] = second compound 0.0316 µM, first compound 0.0316 µM
[2] = second compound 0.0316 µM, first compound 0.1 µM
[3] = second compound 0.0316 µM, first compound 0.316 µM
[4] = second compound 0.0316 µM, first compound 1 µM
[5] = second compound 0.1 µM, first compound 0.0316 µM
[6] = second compound 0.1 µM, first compound 0.1 µM
[7] = second compound 0.1 µM, first compound 0.316 µM
[8] = second compound 0.1 µM, first compound 1 µM
[9] = second compound 0.316 µM, first compound 0.0316 µM
[10] = second compound 0.316 µM, first compound 0.1 µM
[11] = second compound 0.316 µM, first compound 0.316 µM
[12] = second compound 0.316 µM, first compound 1 µM
[13] = second compound 1 µM, first compound 0.0316 µM
[14] = second compound 1 µM, first compound 0.1 µM
[15] = second compound 1 µM, first compound 0.316 µM
[16] = second compound 1 µM, first compound 1 µM
[17] = second compound 3.16 µM, first compound 0.0316 µM
[18] = second compound 3.16 µM, first compound 0.1 µM
[19] = second compound 3.16 µM, first compound 0.316 µM
[20] = second compound 3.16 µM, first compound 1 µM
[21] = second compound 10 µM, first compound 0.0316 µM
[22] = second compound 10 µM, first compound 0.1 µM
[23] = second compound 10 µM, first compound 0.316 µM
[24] = second compound 10 µM, first compound 1 µM
[25] = second compound 0.0316 µM, first compound 0.00316 µM
[26] = second compound 0.0316 µM, first compound 0.01 µM
[27] = second compound 0.1 µM, first compound 0.00316 µM
[28] = second compound 0.1 µM, first compound 0.01 µM
[29] = second compound 0.316 µM, first compound 0.00316 µM
[30] = second compound 0.316 µM, first compound 0.01 µM
[31] = second compound 1 µM, first compound 0.00316 µM
[32] = second compound 1 µM, first compound 0.01 µM
[33] = second compound 3.16 µM, first compound 0.00316 µM
[34] = second compound 3.16 µM, first compound 0.01 µM
[35] = second compound 10 µM, first compound 0.00316 µM
[36] = second compound 10 µM, first compound 0.01 µM
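Also: spheroids exposed to drugs for one week before readout.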
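For viability, T/C in this document: percent viability relative to DMSO vehicle control wells set as 100%.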

## CNCc1ccc(-c2[nH]c3cc(F)cc4c3c2CCNC4=O)cc1 + Nc1ccc(C#CCN(C(=O)Cc2ncc(C(F)(F)F)cc2C(F)(F)F)c2ccc(F)cc2)nn1
Second compound 0.0316 µM
  IC50: > 10 µM
Second compound 0.1 µM
  IC50: > 10 µM
Second compound 0.316 µM
  IC50: > 10 µM
Second compound 1 µM
  IC50: > 10 µM
Second compound 3.16 µM
  IC50: > 10 µM
Second compound 10 µM
  IC50: > 10 µM
[1]
  viability, T/C: 94.5%
[2]
  viability, T/C: 87.2%
[3]
  viability, T/C: 91.2%
[4]
  viability, T/C: 83.1%
Second compound 0.0316 µM, first compound 3.16 µM
  viability, T/C: 86.2%
Second compound 0.0316 µM, first compound 10 µM
  viability, T/C: 71.3%
[5]
  viability, T/C: 96.7%
[6]
  viability, T/C: 115%
[7]
  viability, T/C: 90.7%
[8]
  viability, T/C: 87.8%
Second compound 0.1 µM, first compound 3.16 µM
  viability, T/C: 101%
Second compound 0.1 µM, first compound 10 µM
  viability, T/C: 71.3%
[9]
  viability, T/C: 101%
[10]
  viability, T/C: 108%
[11]
  viability, T/C: 95%
[12]
  viability, T/C: 82.6%
Second compound 0.316 µM, first compound 3.16 µM
  viability, T/C: 115%
Second compound 0.316 µM, first compound 10 µM
  viability, T/C: 73.7%
[13]
  viability, T/C: 103%
[14]
  viability, T/C: 90.2%
[15]
  viability, T/C: 91.2%
[16]
  viability, T/C: 79.5%
Second compound 1 µM, first compound 3.16 µM
  viability, T/C: 95.3%
Second compound 1 µM, first compound 10 µM
  viability, T/C: 84.1%
[17]
  viability, T/C: 102%
[18]
  viability, T/C: 89.5%
[19]
  viability, T/C: 101%
[20]
  viability, T/C: 80.1%
Second compound 3.16 µM, first compound 3.16 µM
  viability, T/C: 93%
Second compound 3.16 µM, first compound 10 µM
  viability, T/C: 71.1%
[21]
  viability, T/C: 90%
[22]
  viability, T/C: 81.4%
[23]
  viability, T/C: 93%
[24]
  viability, T/C: 95.1%
Second compound 10 µM, first compound 3.16 µM
  viability, T/C: 98.7%
Second compound 10 µM, first compound 10 µM
  viability, T/C: 73.1%

## COc1cccc(OCCCN)c1-c1cc(Nc2cnc(C#N)cn2)n[nH]1 + Nc1ccc(C#CCN(C(=O)Cc2ncc(C(F)(F)F)cc2C(F)(F)F)c2ccc(F)cc2)nn1
Second compound 0.0316 µM
  IC50: 0.0707 µM
Second compound 0.1 µM
  IC50: 0.112 µM
Second compound 0.316 µM
  IC50: 0.0949 µM
Second compound 1 µM
  IC50: 0.0776 µM
Second compound 3.16 µM
  IC50: 0.0406 µM
Second compound 10 µM
  IC50: 0.0654 µM
[25]
  viability, T/C: 115%
[26]
  viability, T/C: 76.4%
[1]
  viability, T/C: 56%
[2]
  viability, T/C: 47.3%
[3]
  viability, T/C: 49.3%
[4]
  viability, T/C: 32.3%
[27]
  viability, T/C: 115%
[28]
  viability, T/C: 84.6%
[5]
  viability, T/C: 62.7%
[6]
  viability, T/C: 50.7%
[7]
  viability, T/C: 48.4%
[8]
  viability, T/C: 31.3%
[29]
  viability, T/C: 111%
[30]
  viability, T/C: 79.2%
[9]
  viability, T/C: 60.4%
[10]
  viability, T/C: 48.3%
[11]
  viability, T/C: 48.2%
[12]
  viability, T/C: 36.7%
[31]
  viability, T/C: 121%
[32]
  viability, T/C: 78.5%
[13]
  viability, T/C: 60.6%
[14]
  viability, T/C: 45.9%
[15]
  viability, T/C: 48.5%
[16]
  viability, T/C: 31.6%
[33]
  viability, T/C: 89.5%
[34]
  viability, T/C: 73.4%
[17]
  viability, T/C: 49.5%
[18]
  viability, T/C: 43.4%
[19]
  viability, T/C: 45.2%
[20]
  viability, T/C: 31.7%
[35]
  viability, T/C: 86.6%
[36]
  viability, T/C: 71.7%
[21]
  viability, T/C: 50.2%
[22]
  viability, T/C: 44.2%
[23]
  viability, T/C: 51.3%
[24]
  viability, T/C: 27.1%

## Cn1ncnc1[C@H]1c2n[nH]c(=O)c3cc(F)cc(c23)N[C@@H]1c1ccc(F)cc1 + Nc1ccc(C#CCN(C(=O)Cc2ncc(C(F)(F)F)cc2C(F)(F)F)c2ccc(F)cc2)nn1
Second compound 0.0316 µM
  IC50: > 0.1 µM
Second compound 0.1 µM
  IC50: > 0.1 µM
Second compound 0.316 µM
  IC50: > 0.1 µM
Second compound 1 µM
  IC50: > 0.1 µM
Second compound 3.16 µM
  IC50: > 0.1 µM
Second compound 10 µM
  IC50: > 0.1 µM
Second compound 0.0316 µM, first compound 0.000316 µM
  viability, T/C: 117%
Second compound 0.0316 µM, first compound 0.001 µM
  viability, T/C: 89.7%
[25]
  viability, T/C: 99.6%
[26]
  viability, T/C: 75.7%
[1]
  viability, T/C: 69.8%
[2]
  viability, T/C: 74.5%
Second compound 0.1 µM, first compound 0.000316 µM
  viability, T/C: 123%
Second compound 0.1 µM, first compound 0.001 µM
  viability, T/C: 90.1%
[27]
  viability, T/C: 101%
[28]
  viability, T/C: 78%
[5]
  viability, T/C: 79.8%
[6]
  viability, T/C: 68.5%
Second compound 0.316 µM, first compound 0.000316 µM
  viability, T/C: 91.9%
Second compound 0.316 µM, first compound 0.001 µM
  viability, T/C: 98.5%
[29]
  viability, T/C: 83.6%
[30]
  viability, T/C: 84%
[9]
  viability, T/C: 84.9%
[10]
  viability, T/C: 66.2%
Second compound 1 µM, first compound 0.000316 µM
  viability, T/C: 108%
Second compound 1 µM, first compound 0.001 µM
  viability, T/C: 96.7%
[31]
  viability, T/C: 75.6%
[32]
  viability, T/C: 83.2%
[13]
  viability, T/C: 70.4%
[14]
  viability, T/C: 80.5%
Second compound 3.16 µM, first compound 0.000316 µM
  viability, T/C: 82.3%
Second compound 3.16 µM, first compound 0.001 µM
  viability, T/C: 96.3%
[33]
  viability, T/C: 92.2%
[34]
  viability, T/C: 92.4%
[17]
  viability, T/C: 82.9%
[18]
  viability, T/C: 71.2%
Second compound 10 µM, first compound 0.000316 µM
  viability, T/C: 94.3%
Second compound 10 µM, first compound 0.001 µM
  viability, T/C: 99.2%
[35]
  viability, T/C: 78.7%
[36]
  viability, T/C: 74%
[21]
  viability, T/C: 81.9%
[22]
  viability, T/C: 75.7%
